Measured values: publication PMC6940897, “Less Cytotoxic Protoflavones as Antiviral Agents: Protoapigenone 1′-O-isopropyl ether Shows Improved Selectivity Against the Epstein–Barr Virus Lytic Cycle” (International Journal of Molecular Sciences, 2019)
“Also recorded” adds a separate entry of the source.

Tests used:
[1] = MTT cytotoxicity on the HIV host cells; assay type: cell-based; details: human, U373-CD4-CCR5 cells, MTT, 48 h, n=2; tested up to 100 µM (compound 9 up to 500 µM); read-out: Cytotoxic IC50 ± SEM
Protocol: (§1) The U373-CD4-CCR5 cell line was obtained from the AIDS Research and Reagent Program, NIAID. Cells were cultured according to the protocol of the provider with 10% heat-inactivated fetal bovine serum (Lonza, Maastricht, The Netherlands) supplemented with 2 mM L-glutamine, 100 units/mL of penicillin, and 100 µg/mL streptomycin (Invitrogen, Merelbeke, Belgium). Pseudotyped viral particules bearing the ADA HIV Env were produced, as described previously.
(§2) Antiviral activity was assessed while using a Pseudotype Virus Assay, allowing for one cycle of viral replication. The U373-CD4-CCR5 cells were infected by pseudotyped virus pNL4.3ΔenvLuc-ADA 8 using spinoculation at 1200 g during 2 h in the presence of compounds and cultured for two consecutive days in the presence of the compounds. After 48 h, luciferase activity expressed as Relative Light Units was measured (Luciferase System kit, Promega, The Netherlands). Drug cytotoxicity was evaluated while using MTT (3-(4,5-dimethylthiazol-2-yl)-2,5-diphenyltetrazolium bromide, Sigma, Belgium) 48 h after incubation with the compounds by measuring A540 and A690 using a POLARstar Omega Plate Reader (BMG Lab Technologies, Belgium) after 48 h of incubation with the compounds. The value of OD540–OD690 was calculated.

[2] = test system: EBV lytic cycle (expression of EBV Rta); parameters: method as in PMID 21490247; details: 0.25 µM; cited from earlier work
[3] = test system: EBV lytic cycle (expression of EBV Rta); test: Inhibition of EBV lytic cycle: immunoblot of Rta expression in P3HR1 cells after lytic induction; assay type: cell-based, Epstein–Barr Virus; details: for IC50: human gammaherpesvirus 4, P3HR-1, 24 h after lytic induction with SB and TPA; for IC50 / concentration causing a marked reduction in the Rta levels: immunoblot; for selectivity ratio at 24 h: human, cytotoxic IC50 (P3HR1) / anti-EBV Rta IC50, read-out: Selectivity of the anti-EBV vs. cytotoxic effect (ratio of the corresponding IC50 values); for inhibition of EBV lytic cycle, first screening (in words): 0.25 µM, sodium butyrate + TPA, 24 h; for concentration causing a marked reduction in the Rta levels: 24 h after lytic induction
Protocol: Compounds 2 and 6–28 were tested for their activity on the EBV lytic cycle. To assess this, the P3HR1 cells were treated with sodium butyrate and TPA for 24 h. As expected, lytic protein Rta was expressed after lytic induction. As a first screening, the cells were treated with protoapigenone (2), used as a positive control, or compounds 6–28 at the induction of lytic cycle for 24 h.
(§3) EBV-positive BL cell line P3HR1 cells were cultured in RPMI 1640 medium. Culture media were supplemented with 10% fetal calf serum. P3HR1 cells were treated with 3 mM sodium butyrate and 30 nM 12-O-tetradecanoylphobol-13-actetae (TPA) to induce the EBV lytic cycle.
P3HR1 cells were lysed in mRIPA buffer (50 mM Tris-HCl, pH 7.8, 150 mM NaCl, 5 mM EDTA, 0.5% Triton X-100, 0.5% NP-40). Approximately 5% of the lysate was loaded to a gel and then separated by electrophoresis in 10% SDS-PAGE. The proteins in the gel were electroblotted onto a polyvinylidene difluoride (PVDF) blotting membrane while using a Hoefer transfer system. Rta was detected while using mouse anti-Rta monoclonal antibody (Argene, Verniolle, France). α-Tubulin was detected using mouse anti-α-tubulin monoclonal antibody (Abcam, Cambridge, UK). Primary antibodies were detected using horseradish peroxidase-conjugated secondary antibodies (Cell Signaling Technology, Danvers, MA, USA) and then visualized using SuperSignal West Pico Chemiluminescent substrate (Thermo Fisher Scientific, Waltham, MA, USA).

[4] = MTT cytotoxicity assay on P3HR1 cells; assay type: cell-based; details: human, 24 h
Protocol: as §3
(§4) P3HR1 cells (5 × 10^4) were seeded in wells of a 96-well plate and then cultured for 24 h in 100 µL of RPMI 1640 medium containing protoapigenone or its analogs. Subsequently, 1% Triton X-100 was added as a […] control. Cytotoxicity was determined by Cell Proliferation Kit I (Roche, Basel, Switzerland). An aliquot of 10 µL of the MTT labeling reagent was added to each well and the plate was incubated for 4 h at 37°C. Afterwards, 100 µL solubilization solution was added to each well to dissolve insoluble formazan and was incubated overnight. Optical density was measured at 595 nm and 650 nm.

[5] = test system: P3HR1 cells; test: MTT cytotoxicity assay on P3HR1 cells; assay type: cell-based
Protocol: as §3, §4

[6] = test system: U373-CD4-CCR5 cells; test: MTT cytotoxicity on the HIV host cells; assay type: cell-based; details: for IC50: U373-CD4-CCR5 cells, MTT, 48 h, n=2, tested up to 100 µM (compound 9 up to 500 µM), read-out: Cytotoxic IC50 ± SEM
Protocol: as §1, §2

[7] = test system: HIV-1; test: HIV-1 pseudotype virus assay (one cycle of viral replication, luciferase readout); assay type: cell-based
Protocol: Compounds 2, 6–14, and 21–28 were tested against HIV-1 while using a pseudotype virus assay allowing only one cycle of viral replication and being more sensitive for compounds targeting the early steps of HIV replication, such as reverse transcription and integration. […] While this represents a rather weak activity, it might still be of interest, since this compound was not cytotoxic on the host cells at as high as 500 µM concentration.
as §1, with “Pseudotyped viral particules bearing the ADA HIV Env were produced, as described previously.” left out
as §2, with “The U373-CD4-CCR5 cells were infected by pseudotyped virus pNL4.3ΔenvLuc-ADA 8 using spinoculation at 1200 g during 2 h in the presence of compounds and cultured for two consecutive days in the presence of the compounds.” left out

O=C1C=CC(O)(c2cc(=O)c3c(O)cc(O)cc3o2)C=C1 [Compound 2, protoapigenone]
IC50 at 48 h [1]: 0.22 ± 0.003 µM
activity against EBV lytic cycle (in words) [2]: strong activity
IC50 [3]: 0.127 µM
selectivity ratio at 24 h [3]: 30.1
IC50 at 24 h [4]: 3.86 µM

CC(C)OC1(c2cc(=O)c3c(O)cc(O)cc3o2)C=CC(=O)C=C1 [Compound 6, protoapigenone 1′-O-isopropyl ether]
IC50 at 48 h [1]: 2.09 ± 0.13 µM
inhibition of EBV lytic cycle, first screening (in words) [3]: can inhibit EBV lytic cycle
concentration causing a marked reduction in the Rta levels [3]: 0.50 µM
IC50 [3]: 0.467 µM
selectivity ratio at 24 h [3]: 73
cytotoxic activity compared to protoapigenone (in words) [5]: much weaker; also recorded: an order of magnitude lower cytotoxic effect
IC50 at 24 h [4]: 34.1 µM

CCCCOC1(c2cc(=O)c3c(O)cc(O)cc3o2)C=CC(=O)C=C1 [Compound 7]
IC50 at 48 h [1]: 0.25 ± 0.002 µM
inhibition of EBV lytic cycle, first screening (in words) [3]: can inhibit EBV lytic cycle
concentration causing a marked reduction in the Rta levels [3]: 0.25 µM
IC50 [3]: 0.208 µM
selectivity ratio at 24 h [3]: 9.8
cytotoxic activity compared to protoapigenone (in words) [5]: similarly active as protoapigenone
IC50 at 24 h [4]: 2.04 µM

C#CCOC1(c2cc(=O)c3c(O)cc(O)cc3o2)C=CC(=O)C=C1 [Compound 8, protoapigenone 1′-O-propargyl ether]
IC50 at 48 h [1]: 0.67 ± 0.03 µM
inhibition of EBV lytic cycle, first screening (in words) [3]: can inhibit EBV lytic cycle
concentration causing a marked reduction in the Rta levels [3]: 0.50 µM
IC50 [3]: 0.285 µM
selectivity ratio at 24 h [3]: 17.3
cytotoxic activity compared to protoapigenone (in words) [5]: similarly active as protoapigenone
IC50 at 24 h [4]: 4.93 µM

O=C1CCC(O)(c2cc(=O)c3c(O)cc(O)cc3o2)CC1 [Compound 9, Tetrahydroprotoapigenone]
IC50 at 48 h [1]: > 500 µM
cytotoxicity on the host cells (in words) ([6]; at as high as 500 µM): not cytotoxic
inhibition at 100 µM ([7]; Human immunodeficiency virus 1, 48 h, read-out: inhibition of viral infection): ~50%
antiretroviral activity against HIV-1 (in words) ([7]; pseudotype virus assay, 100 µM where stated): inhibits HIV-1 infection; also recorded: weak antiretroviral activity

COC1(c2cc(=O)c3c(O)cc(O)cc3o2)CCC(=O)CC1 [Compound 10]
IC50 at 48 h [1]: > 100 µM

CCOC1(c2cc(=O)c3c(O)cc(O)cc3o2)CCC(=O)CC1 [Compound 11]
IC50 at 48 h [1]: > 100 µM

CCCOC1(c2cc(=O)c3c(O)cc(O)cc3o2)CCC(=O)CC1 [Compound 12]
IC50 at 48 h [1]: > 100 µM

CC(C)OC1(c2cc(=O)c3c(O)cc(O)cc3o2)CCC(=O)CC1 [Compound 13]
IC50 at 48 h [1]: > 100 µM

CCCCOC1(c2cc(=O)c3c(O)cc(O)cc3o2)CCC(=O)CC1 [Compound 14]
IC50 at 48 h [1]: ~6.37 µM

COC1CC(=NO)C=CC1(OC(C)C)c1cc(=O)c2c(O)cc(O)cc2o1 (stereo not shown) [Compound 21]
IC50 at 48 h [1]: > 100 µM

CCCCOC1(c2cc(=O)c3c(O)cc(O)cc3o2)C=CC(=NO)CC1OC (stereo not shown) [Compound 22]
IC50 at 48 h [1]: > 100 µM

C#CCOC1(c2cc(=O)c3c(O)cc(O)cc3o2)C=CC(=NO)CC1OC (stereo not shown) [Compound 23]
IC50 at 48 h [1]: ~89.5 µM

COC1CC(=NO)C=CC1(OC(C)C)c1cc(=O)c2c(O)cc(O)cc2o1 (stereo not shown) [Compound 24]
IC50 [6]: > 100 µM

CCCCOC1(c2cc(=O)c3c(O)cc(O)cc3o2)C=CC(=NO)CC1OC (stereo not shown) [Compound 25]
IC50 [6]: 53.88 ± 0.35 µM

C#CCOC1(c2cc(=O)c3c(O)cc(O)cc3o2)C=CC(=NO)CC1OC (stereo not shown) [Compound 26]
IC50 [6]: > 100 µM

O=c1cc(C2(O)CCC(=NO)CC2)oc2cc(O)cc(O)c12 (stereo not shown) [Compound 27]
IC50 at 48 h [1]: > 100 µM

CCCCOC1(c2cc(=O)c3c(O)cc(O)cc3o2)CCC(=NO)CC1 (stereo not shown) [Compound 28]
IC50 at 48 h [1]: 27 ± 8.4 µM
